How the values were obtained:
PCSK9 [1] = assay: In vitro PCSK9 inhibition test: Western blot of PCSK9/ProPCSK9 in culture medium and cells of HepG2 cells; type: cell-based, human; details: HepG2, 24 hours; for PCSK9 (in cells) / PCSK9 (in culture medium) / ProPCSK9 (in cells) / Total PCSK9 amount: percentage with respect to total amount of PCSK9 in the control; for total amount of PCSK9, dependence on the concentration added: 1.0 and 10 micro gram/mL; for total amount of PCSK9, dependence on the concentration added / amount of PCSK9 in the culture medium and the cells, as compared with the control: result in words
Experimental: HepG2 cells derived from human liver cancer (5×10^5 cells/mL, 0.25 mL/well) were seeded on a 48-well plate. Subject compounds: 1,11-O-o-methylbenzylidene-7-O-p-cyanobenzoyl-1,7,11-trideacetyl pyripyropene A (PRD125), 7-p-cyanobenzoyl-7-deacetyl pyripyropene A (PRD017), 7-O-p-cyanobenzoyl-1,11-di(O-isobutyryl)-1,7,11-trideacetyl pyripyropene A (PRD056), and comparative compounds: pyripyropene A (PPPA) and a known statin drug, atorvastatin (Atr), were each added to the wells at a predetermined concentration, and the cells were cultured in a serum-free medium at 37° C. for 24 hours. As a control, the cells were treated in wells in the absense of compound under similar conditions. After culturing, the culture medium and the cells were collected. PCSK9 in the culture medium and the cells was detected by Western blotting. Using an image analysis software (ImageLab), band intensity of the detected PCSK9 was quantified. The quantitative value of each band intensity was corrected based on the quantitative value of the band intensity of glyceraldehyde-3-phosphate dehydrogenase (GAPDH) that is a loading control for Western blotting. In the figure, FIG. 1A indicates the results of detecting PCSK9 and ProPCSK9 in the culture medium and the cells with PRD017 or PRD056 added, and FIG. 1B indicates the results of detecting PCSK9 and ProPCSK9 in the culture medium and the cells with PRD125, Atr, or PPPA added. In FIG. 2, FIG. 2A indicates the results with PRD017 added, FIG. 2B indicates the results with PRD056 added, and FIG. 2C indicates the results with PRD125 added, respectively. In FIG. 3, FIG. 3A indicates the results with Atr added, and FIG. 3B indicates the results with PPPA added, respectively. In the figures, the horizontal axis indicates the concentration of the compound (micro gram/mL) added, and the vertical axis indicates the total amount of PCSK9(%), respectively. The total amount of PCSK9 is a percentage with respect to the total amount of PCSK9 in the control. The values in Table 1 are percentages with respect to the total amount of PCSK9 in the control.

PCSK9 [2] = assay: In-vivo PCSK9 inhibition test in high-fat-diet-fed mice; design: species or system mice (C57BL/6J); details: 10 mg/kg body weight/day in HFD for 8 weeks, versus control group
Experimental: Female and male mice (C57BL/6J) were fed with high-fat diet (HFD) for 4 weeks. The mice were grouped into the control group, the PPPA-administered group and PRD125-administered group (N=20 for males and N=20 for females in each group). The PPPA-administered group and the PRD125-administered group were fed with HFD with each subject compound or a comparative compound added for 8 weeks. The control group was fed only with HFD for 8 weeks. The PPPA was administered at a dose of 50 mg/kg body weight/day, and the PRD125 was administered at a dose of 10 mg/kg body weight/day, respectively. After the completion of the administration period, the blood was collected and the liver was extracted under anesthesia, from the mice of each group. The amount of LDL-cholesterol and the amount of PCSK9 in the blood, and the amount of total cholesterol, the amount of cholesteryl ester, and the amount of triglyceride in the liver were measured. The averages and the standard deviations of the measured values in each group were calculated. Further, the p values for the values of the PPPA-administered group and the PRD125-administered group with respect to the value of the control group were calculated by the student t-test. […]

Compound | PCSK9 (in cells) (PCSK9 [1]; 1.0 micro gram/mL) [%] | PCSK9 (in culture medium) (PCSK9 [1]; 1.0 micro gram/mL) [%] | ProPCSK9 (in cells) (PCSK9 [1]; 1.0 micro gram/mL) [%] | Total PCSK9 amount (PCSK9 [1]; 1.0 micro gram/mL) [%] | amount of PCSK9 in the culture medium with respect to the amount of PCSK9 in the culture medium of the control (PCSK9 [1]; 10 micro gram/mL) [%] | amount of ProPCSK9 in the cells with respect to the amount of ProPCSK9 in the cells of the control (PCSK9 [1]; 10 micro gram/mL) [%] | PCSK9 (in cells) (PCSK9 [1]; 10 micro gram/mL) [%] | PCSK9 (in culture medium) (PCSK9 [1]; 10 micro gram/mL) [%] | ProPCSK9 (in cells) (PCSK9 [1]; 10 micro gram/mL) [%] | Total PCSK9 amount (PCSK9 [1]; 10 micro gram/mL) [%] | total amount of PCSK9, dependence on the concentration added (PCSK9 [1]) | amount of PCSK9 in the cells with respect to the amount of PCSK9 in the cells of the control (PCSK9 [1]; 10 micro gram/mL) [%] | amount of PCSK9 in the culture medium and the cells, as compared with the control (PCSK9 [1]) | amount of PCSK9 in the blood (PCSK9 [2]; HFD-fed male and female mice) | amount of triglyceride in the liver and the blood (PCSK9 [2]; HFD-fed mice)
7-O-p-cyanobenzoyl-1,11-di(O-isobutyryl)-1,7,11-trideacetyl pyripyropene A [PRD056] | 27.2 | 21.1 | 8.1 | 56.4 | 30 | 44.8 | 34.5 | 15.2 | 6.4 | 56.1 | decreased depending on the concentration added | – | – | – | –
CC(C)c1c(C(=O)Nc2ccccc2)c(-c2ccccc2)c(-c2ccc(F)cc2)n1CC[C@@H](O)C[C@@H](O)CC(=O)O [Atr, atorvastatin, reference compound] | 49.4 | 129.3 | 90.0 | 268.7 | 273.8 | 682.5 | 63.2 | 136.1 | 97.6 | 296.8 | – | 175.6 | rather increased | – | –
CC(=O)OC[C@@]1(C)[C@@H]2C[C@H](OC(C)=O)[C@@]3(C)Oc4cc(-c5cccnc5)oc(=O)c4[C@H](O)[C@@H]3[C@@]2(C)CC[C@@H]1OC(C)=O [PPPA, pyripyropene A, reference compound] | 35.7 | 45.2 | 35.7 | 116.6 | – | – | 38.4 | 31.7 | 19.7 | 89.8 | – | – | no significant difference | – | –
CC(=O)OCC1(C)[C@@H](OC(C)=O)CC[C@]2(C)[C@H]3[C@@H](O)c4c(cc(-c5cccnc5)oc4=O)O[C@]3(C)[C@@H](OC(=O)c3ccc(C#N)cc3)C[C@@H]12 (stereo partly shown) [PRD017, 7-p-cyanobenzoyl-7-deacetyl pyripyropene A] | 40.3 | 28.3 | 11.7 | 80.3 | 44 | 46 | 29.4 | 22.0 | 6.6 | 58 | decreased depending on the concentration added | – | – | – | –
Cc1ccccc1[C@@H]1OCC2(C)C3C[C@H](OC(=O)c4ccc(C#N)cc4)[C@@]4(C)Oc5cc(-c6cccnc6)oc(=O)c5[C@H](O)C4[C@@]3(C)CC[C@@H]2O1 (stereo partly shown) [PRD125, 1,11-O-o-methylbenzylidene-7-O-p-cyanobenzoyl-1,7,11-trideacetyl pyripyropene A] | 20.7 | 23.0 | 12.8 | 56.5 | 41.6 | – | 23.6 | 20.7 | 10.4 | 54.7 | decreased depending on the concentration added | – | – | significantly reduced | markedly reduced
